This is an account of results in EP0479834B1, “COMPETITIVE ENZYME ASSAY FOR DETERMINATION OF PHOSPHOTHIOATE INSECTICIDES” (COMMONWEALTH SCIENTIFIC AND INDUSTRIAL RESEARCH ORGANISATION, priority 1989, dated 1991).

Common to all, as to format: binding
Experiment [1] concerns Antibody P11 (phosphorothioate-specific antibody; control pesticide pirimiphos-methyl). The experiment in a line: competition ELISA, assay format 1 (antibody on the solid phase, horseradish peroxidase-labelled phosphorothioate). Particulars: Antibody P11, assay format 1, control pesticide PY; 30 min incubation with enzyme conjugate. On the procedure:
(§1) The solid phase is coated with phosphorothioate-specific antibody. Preferentially the antibody is coated at 10µg/mL in 50mM sodium carbonate buffer, pH 9.6. Non-specific binding of immunoreactants is then minimized by treatment with a suitable protein or detergent, for example, 10mg/mL bovine serum albumin in 50mM sodium phosphate, pH 7.2 - 0.9% sodium chloride. The grain or food or other sample to be analyzed is extracted in neat methanol or ethanol, although other polar water-miscible solvents may be used; such as isopropanol, acetonitrile and acetone. Mixtures of water and these solvents may also be used. The grain, food or other extract is diluted five-fold in a protein and detergent-containing buffer (for example 10mg/mL bovine serum albumin or lmg/mL Teleostean fish skin gelatin in 0.05% (v/v) Tween in phosphate-buffered saline) applied to the solid phase and enzyme-labelled phosphorothioate (diluted similarly) is added immediately. A standard is prepared in methanol or ethanol and dilutions of this standard assayed simultaneously.
(§2) An incubation time of 30 min with chlorpyrifos-methyl (P9) or pirimiphos-methyl (P11) conjugated to horseradish peroxidase was used for the results shown in Table 1, together with 10 min chromogenic substrate (2,2'-azino-bis (3-ethyl benzthiazoline -6- sulfonic acid)) incubation time. The chromogen 3,3',5,5'-tetramethylbenzidine may also be used.
(§3) Analysis by this technique is based on the competition between phosphorothioate in the test sample and enzyme-labelled phosphorothioate for binding to phosphorothioate-specific antibody on the solid phase. There is a decrease in the binding of the enzyme-labelled phosphorothioate as the concentration of phosphorothioate increases in the test sample; this is manifest in decreasing absorbance of the coloured enzyme product. The concentration of phosphorothioate in an unknown sample may be determined by comparing the degree of inhibition of antibody binding caused by the addition of the sample extract with that resulting from the addition of known amounts of phosphorothioate. […]
(An ELISA detects its analyte on a solid surface through an enzyme-linked reagent.)

The subject of experiment [2] is Antibody F7 (phosphorothioate-specific antibody; control pesticide chlorpyrifos-methyl). The experiment in a line: competition ELISA, assay format 2 (pesticide-macromolecule conjugate on the solid phase, antibody in solution). Particulars: Antibody F7, assay format 2, control pesticide CP; 30 min antibody incubation. On the procedure:
The solid phase is coated with a pesticide-macromolecule conjugate. For the results listed in Table 1, the immunogen conjugate of chlorpyrifos-methyl (F7) was used. Following pretreatment to minimize non-specific binding of conjugate by treatment with a suitable protein or detergent, the sample to be analyzed is added. The grain, food or other sample may either be extracted in methanol, ethanol or other polar water-miscible solvent, or otherwise be extracted with a volatile organic solvent such as dichloromethane or acetone. The solvent may be removed by evaporation and the residue redissolved in a smaller volume of methanol. The extract or reconstituted residue is diluted in a protein and detergent - containing buffer and applied to the solid phase and antibody is added immediately. A standard is prepared in methanol and dilutions of this standard assayed simultaneously. Such antibody may either be enzyme-labelled by direct covalent association or a suitable amplification step used to detect binding of the antibody. Analysis by this technique is based on the competition between phosphorothioate in the test sample and solid phase- bound phosphorothioate, for binding to antibody in solution. There is a decrease in the binding of antibody as the concentration of organophosphate increases in the test sample; this is manifest in decreasing absorbance of the coloured enzyme product, in this example. The concentration of organophosphate may be assessed as described in assay format 1. Clean-up of the extracts was not necessary.
An antibody incubation time of 30 minutes was used, together with 20 min (2,2'-azino bis (3-ethylbenzthiazoline-6-sulfonic acid)) substrate incubation time. The overall assay time can be reduced to 5-10 minutes or increased to 18 hours for batchwise analysis of large numbers of (several hundred) samples.
The data shown in Table 1 are potencies relative to the control pesticide (determined as relative concentration yielding 50% inhibition of antibody binding). Absolute amounts of control pesticide yielding 50% inhibition of antibody binding in competition ELISA are: P9 (0.001 ng), F7 (50 ng), Pll (2 ng).

In experiment [3] the test system is Antibody F9 (phosphorothioate-specific antibody; control pesticide chlorpyrifos-methyl). The experiment can be described thus: competition ELISA, assay format 1 (antibody on the solid phase, horseradish peroxidase-labelled phosphorothioate). The note with it: Antibody F9, assay format 1, control pesticide CP; 30 min incubation with enzyme conjugate. The protocol:
as §1, §2, §3

Turning to `CCN(CC)c1nc(C)cc(OP(=S)(OC)OC)n1` [pirimiphos-methyl (PY), pirimiphos-methyl], the “potencies relative to the control pesticide (relative concentration yielding 50% inhibition of antibody binding)” value in experiment [1] was 1.0.

For the molecule `CCOP(=S)(OCC)Oc1nc(Cl)c(Cl)cc1Cl` [chlorpyrifos-ethyl], in experiment [2], the “potencies relative to the control pesticide (relative concentration yielding 50% inhibition of antibody binding)” value worked out at 0.07.

For `COP(=S)(OC)Oc1ccc([N+](=O)[O-])c(C)c1` [fenitrothion (FN), fenitrothion], in experiment [2], the “potencies relative to the control pesticide (relative concentration yielding 50% inhibition of antibody binding)” value is 0.01.

For `COP(=S)(OC)Oc1ccc([N+](=O)[O-])cc1Cl` [dicapthon], in experiment [2], the “potencies relative to the control pesticide (relative concentration yielding 50% inhibition of antibody binding)” value is on record as 0.01.

For the molecule `COP(=S)(OC)Oc1nc(Cl)c(Cl)cc1Cl` [chlorpyrifos-methyl (CP), chlorpyrifos-methyl], the “potencies relative to the control pesticide (relative concentration yielding 50% inhibition of antibody binding)” value in experiment [3] and in experiment [2] was 1.0 each time.

`COP(=S)(OC)Oc1ccc([N+](=O)[O-])cc1` [methylparathion]: the “potencies relative to the control pesticide (relative concentration yielding 50% inhibition of antibody binding)” value in experiment [2] stood at 0.003.

As to `CCOP(=S)(OCC)Oc1cc(C)nc(N(CC)CC)n1` [pirimiphos-ethyl], the “potencies relative to the control pesticide (relative concentration yielding 50% inhibition of antibody binding)” value in experiment [1] is recorded as 2.9.
